# Earlier results as cited in patent US20100190739A1, “Rapidly Dissolving Vitamin Formulation and Methods of Using the Same” (FLEMING AND COMPANY, PHARMACEUTICALS, priority 2008, published 2010).
# Legend:
# [1] = not given; remark: listed apart in the source
# [2] = Institute of Medicine
compound,measurement,setting,value
"[Mo] [Molybdenum, molybdenum]",Intake causing significant losses of copper,in vivo,above 500 μg/day
"[Mn+2] [Manganese, manganese]",Fraction of dietary intake absorbed,[1],3-5%
same,Tolerable upper limit,[2],11 mg/day
"[Cr] [Chromium, chromium]",Doses that can cause adverse reactions,some evidence,above 250 μg
O=C(O)c1cccnc1 [niacin],Tolerable upper limit,[2],35 mg/day
cobalamin [Example B12],Level at which toxicity has not been demonstrated,in vivo,"10,000 × the recommended daily allowance (RDA)"
"Cc1ncc(C[n+]2csc(CCO)c2C)c(N)n1 [Example B1, thiamine]",Dose with no evidence of oral toxicity,"doses as high as, taken for extended periods of time",200 mg
"[Zn] [Zinc, zinc]",Tolerable upper limit,[2],40 mg/day
same,Doses at which acute toxicity can occur (as low as),in vivo,≥ 30 mg/day
same,Doses at which acute toxicity is more common,in vivo,exceeding 100 mg/day
"[Se] [Selenium, selenium]",Tolerable upper limit,[2],0.4 mg/day
"Cc1ncc(CO)c(CO)c1O [Example B6, pyridoxine]",Tolerable upper limit,[2],100 mg/day
same,Dose showing potential damage to sensory nerves,long term study,200 mg/day
